Source: DBAASP
≈ marks a conversion by molar mass, not a printed value. Values belong to the molecule of their own block, whether it stands above or below them.

Tests used:
Assay in all cases: ≥ marks a high value that may be exact or a test limit, other limits are often not marked, values filed in µg/mL are converted to µM
[1] = tested on: Micrococcus luteus ATCC 10240
[2] = tested on: Salmonella typhimurium KCTC 2370
[3] = tested on: Escherichia coli KCTC 2223
[4] = tested on: Staphylococcus aureus ATCC 15752
[5] = tested on: Staphylococcus aureus ATCC 43300
Escherichia coli MG1655 = tested on: Escherichia coli MG1655
[6] = tested on: Enterococcus faecalis ATCC 29212
[7] = tested on: Bacillus subtilis MTCC 14416
[8] = tested on: Staphylococcus aureus MTCC 9542
Vibrio cholerae = tested on: Vibrio cholerae
[9] = tested on: Pseudomonas aeruginosa ATCC 27853
[10] = tested on: Staphylococcus epidermidis ATCC 12228
[11] = tested on: Staphylococcus aureus CMCC 26003
[12] = tested on: Escherichia coli CMCC 44102
[13] = tested on: Salmonella enterica subsp. enterica serovar Enteritidis MH91989
Escherichia coli MC1041 = tested on: Escherichia coli MC1041
Escherichia coli BW25113 = tested on: Escherichia coli BW25113
Escherichia coli JW0013 = tested on: Escherichia coli JW0013
Escherichia coli JJ2489 = tested on: Escherichia coli JJ2489
Escherichia coli J2210 = tested on: Escherichia coli J2210
[14] = tested on: Escherichia coli JW2778 ΔygdD
[15] = tested on: Escherichia coli JW0368 ΔsbmA
[16] = tested on: Salmonella typhimurium SL1344

MIC [1]: 0.5 µM (≈ 1.43 µg/mL) | MIC [2]: 4 µM (≈ 11.4 µg/mL) | MIC [3]: 2 µM (≈ 5.7 µg/mL) | MIC [4]: 2 µM (≈ 5.7 µg/mL)
SMILES: CC(C)C[C@H](NC(=O)[C@H](CCCCN)NC(=O)[C@H](CCC(N)=O)NC(=O)[C@H](CCCCN)NC(=O)[C@H](CC(C)C)NC(=O)[C@H](CC(C)C)NC(=O)[C@H](CCC(N)=O)NC(=O)[C@H](CC(C)C)NC(=O)[C@H](CC(C)C)NC(=O)[C@@H]1CCCN1C(=O)[C@H](CCCN=C(N)N)NC(=O)[C@H](CC(C)C)NC(=O)[C@H](CC(C)C)NC(=O)[C@H](CCCN=C(N)N)NC(=O)CNC(=O)CNC(=O)CNC(=O)[C@@H]1CCCN1C(=O)[C@@H]1CCCN1C(=O)CNC(=O)[C@H](CCCN=C(N)N)NC(=O)[C@@H](NC(=O)[C@H](CCCCN)NC(=O)[C@@H](N)CCCN=C(N)N)C(C)C)C(=O)N[C@@H](CCCN=C(N)N)C(=O)O [RKVRGPPGGGRLLRPLLQLLKQKLR]

MIC [5]: 26.3 µM (≈ 49.9 µg/mL) | MIC (Escherichia coli MG1655): 6.57 µM (≈ 12.5 µg/mL) | MIC [6]: 52.6 µM (≈ 99.8 µg/mL) | MIC [7]: 26.3 µM (≈ 49.9 µg/mL) | MIC [8]: 3.23 µM (≈ 6.14 µg/mL) | MIC [9]: > 52.6 µM
SMILES: CC[C@H](C)[C@@H]1NC(=O)[C@H](CCCCN)NC(=O)[C@@H](NC(=O)[C@H](CC(C)C)NC(=O)[C@@H](NC(=O)[C@H](CCC(N)=O)NC(=O)[C@@H]2CCCN2C(=O)[C@H](CC(C)C)NC(=O)[C@H](Cc2ccccc2)NC(=O)[C@H](CC(N)=O)NC(=O)[C@H](C)NC(=O)[C@H](C)NC(=O)[C@@H](N)CC(C)C)[C@@H](C)CC)CSSC[C@@H](C(N)=O)NC(=O)[C@H](CCCCN)NC(=O)[C@H](CCCN=C(N)N)NC(=O)[C@H](C)NC1=O [LAANFLPQILCKIARKC]
MIC (Vibrio cholerae): 6.57 µM (≈ 12.5 µg/mL)

MIC [10]: 4 µM (≈ 12.8 µg/mL) | MIC [11]: 4 µM (≈ 12.8 µg/mL) | MIC [12]: 4 µM (≈ 12.8 µg/mL) | MIC [9]: 16 µM (≈ 51.2 µg/mL)
SMILES: CC[C@H](C)[C@H](NC(=O)[C@H](CCCN=C(N)N)NC(=O)[C@H](CCCN=C(N)N)NC(=O)[C@H](CC(C)C)NC(=O)[C@H](Cc1ccccc1)NC(=O)[C@@H]1CCCN1C(=O)[C@H](CCCN=C(N)N)NC(=O)[C@H](CCSC)NC(=O)[C@@H](NC(=O)[C@H](CCCCN)NC(=O)[C@H](CCCCN)NC(=O)[C@H](CS)NC(=O)[C@@H](NC(=O)CNC(=O)[C@H](CCCN=C(N)N)NC(=O)[C@H](CC(C)C)NC(=O)[C@@H](NC(=O)[C@@H](N)CCCCN)[C@@H](C)CC)C(C)C)[C@@H](C)CC)C(=O)N[C@@H](CO)C(=O)N[C@@H](CCCCN)C(=O)N[C@@H](CC(=O)O)C(=O)N[C@H](C(=O)N[C@@H](CC(C)C)C(=O)N[C@H](C(=O)NCC(=O)N[C@@H](CCCCN)C(=O)N[C@@H](CCCCN)C(N)=O)[C@@H](C)O)[C@@H](C)CC [KILRGVCKKIMRPFLRRISKDILTGKK]

MIC [13]: 0.067 µM (≈ 0.141 µg/mL) | MIC (Escherichia coli MC1041): 0.096 µM (≈ 0.202 µg/mL) | MIC (Escherichia coli BW25113): 0.048 µM (≈ 0.101 µg/mL) | MIC (Escherichia coli JW0013): 0.048 µM (≈ 0.101 µg/mL) | MIC (Escherichia coli JJ2489): 0.067 µM (≈ 0.141 µg/mL) | MIC (Escherichia coli J2210): 0.133 µM (≈ 0.279 µg/mL) | MIC [14]: 0.096 µM (≈ 0.202 µg/mL) | MIC [15]: 0.384 µM (≈ 0.806 µg/mL) | MIC [16]: 0.126 µM (≈ 0.265 µg/mL)
SMILES: CC[C@H](C)[C@H](NC(=O)[C@H](Cc1ccc(O)cc1)NC(=O)[C@@H](NC(=O)[C@@H]1CCCN1C(=O)[C@H](CCCCN)NC(=O)[C@H](CC(N)=O)NC(=O)[C@H](CC(N)=O)NC(=O)CN)C(C)C)C(=O)N1CCC[C@H]1C(=O)N[C@@H](CCC(N)=O)C(=O)N1CCC[C@H]1C(=O)N[C@@H](CCCN=C(N)N)C(=O)N1CCC[C@H]1C(=O)N1CCC[C@H]1C(=O)N[C@@H](CCCN=C(N)N)C(=O)N1CCC[C@H]1C(=O)N[C@@H](CCCN=C(N)N)C(=O)N[C@@H](CC(C)C)C(=O)O [GNNKPVYIPQPRPPRPRL]
